Test results from patent publication US20230322846A9, “NEUROACTIVE STEROIDS AND THEIR METHODS OF USE” (SAGE THERAPEUTICS, INC., priority 2018, published 2023).

Each molecule was assayed against [35S]-TBPS binding, rat brain cortical membranes (assay: Steroid inhibition of [35S]-TBPS binding). Conditions: 3 nM [35S]-TBPS, in the presence of 5 mM GABA.
Method in brief: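 Rat cortical P2 membranes incubated 90 min at room temperature with 3 nM [35S]-TBPS, […] and test compound (0.5% DMSO final) in NaCl/Na–K phosphate pH 7.4; nonspecific binding with […]. Filter-bound radioactivity counted; IC50 and Imax from nonlinear fits, mean ± SEM.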

SMILES	IC50 [nM]
CCC[C@@]1(O)CC[C@H]2[C@H](CC[C@@H]3[C@@H]2CC[C@@]2(C)[C@H]3CC[C@]2(O)[C@@H](C)Cn2cc(C#N)cn2)C1 [Example 347, 1-((S)-2-((3R,5R,8R,9R,10S,13S,14S,17S)-3,17-dihydroxy-13-methyl-3-propylhexadecahydro-1H-cyclopenta[a]phenanthren-17-yl)propyl)-1H-pyrazole-4-carbonitrile]	1000 to 10000
CCOC[C@@]1(O)CC[C@@]2(C)[C@H](CC[C@@H]3[C@@H]2CC[C@]2(C)[C@@H]([C@@H](C)N[C@@H](C)c4ccccc4)CC[C@@H]32)C1 [Example 211]	100 to 1000
CCOC(=O)c1cnc(C[C@@H](C)[C@H]2CC[C@H]3[C@@H]4CC[C@@H]5C[C@](C)(O)CC[C@@H]5[C@H]4CC[C@]23C)o1 (stereo in doubt) [Example 456]	100 to 1000
C[C@H](NS(=O)(=O)c1ccccc1)[C@H]1CC[C@H]2[C@@H]3CC[C@@H]4C[C@](C)(O)CC[C@@H]4[C@H]3CC[C@]12C [Example 17, N—((S)-1-((3R,5R,8R,9R,10S,13S,14S,17S)-3-hydroxy-3,13-dimethylhexadecahydro-1H-cyclopenta[a]phenanthren-17-yl)ethyl)benzenesulfonamide]	1000 to 10000
CCC[C@@]1(O)CC[C@H]2[C@@H](CC[C@@H]3[C@@H]2CC[C@]2(C)[C@@H]([C@H](C)Cn4nnnc4C)CC[C@@H]32)C1 [Example 331, (3R,5S,8R,9R,10S,13S,14S,17R)-13-methyl-17-((S)-1-(5-methyl-1H-tetrazol-1-yl)propan-2-yl)-3-propylhexadecahydro-1H-cyclopenta[a]phenanthren-3-ol]	≥ 10000
CC(C)[C@@]1(O)CC[C@H]2[C@H](CC[C@@H]3[C@@H]2CC[C@]2(C)[C@@H]([C@@H](C)Cn4cc(C#N)cn4)CC[C@@H]32)C1 [Example 343, 1-((R)-2-((3R,5R,8R,9R,10S,13S,14S,17R)-3-hydroxy-3-isopropyl-13-methylhexadecahydro-1H-cyclopenta[a]phenanthren-17-yl)propyl)-1H-pyrazole-4-carbonitrile]	100 to 1000
C[C@H](Cn1cc(C#N)cn1)[C@@]1(O)CC[C@H]2[C@@H]3CC[C@@H]4C[C@](C)(O)CC[C@@H]4[C@H]3CC[C@@]21C [Example 346, 1-((R)-2-((3R,5R,8R,9R,10S,13S,14S,17S)-3,17-dihydroxy-3,13-dimethylhexadecahydro-1H-cyclopenta[a]phenanthren-17-yl)propyl)-1H-pyrazole-4-carbonitrile]	1000 to 10000
COC[C@@]1(O)CC[C@H]2[C@H](CC[C@@H]3[C@@H]2CC[C@]2(C)[C@@H]([C@@H](C)Cc4ccc(C#N)nc4)CC[C@@H]32)C1 [Example 404, 5-((S)-2-((3R,5R,8R,9R,10S,13R,14S,17R)-3-hydroxy-3-(methoxymethyl)-13-methylhexadecahydro-1H-cyclopenta[a]phenanthren-17-yl)propyl)picolinonitrile]	< 100
C[C@H]([C@H]1CC[C@H]2[C@@H]3CC[C@@H]4C[C@](C)(O)CC[C@@H]4[C@H]3CC[C@]12C)N(C)c1ccccc1 [Example 38, (3R,5R,8R,9R,10S,13S,14S,17S)-3,13-dimethyl-17-((R)-1-(methyl(phenyl)amino)ethyl)hexadecahydro-1H-cyclopenta[a]phenanthren-3-ol]	100 to 1000
COC[C@@]1(O)CC[C@H]2[C@H](CC[C@@H]3[C@@H]2CC[C@]2(C)[C@@H]([C@H](C)NC(=O)c4ccc(F)cc4F)CC[C@@H]32)C1 [Example 135]	1000 to 10000
Cc1cnc(C[C@H](C)[C@H]2CC[C@H]3[C@@H]4CC[C@@H]5C[C@](C)(O)CC[C@@H]5[C@H]4CC[C@]23C)nc1 [Example 437]	< 100
Cc1cncc(C[C@@H](C)[C@H]2CC[C@H]3[C@@H]4CC[C@@H]5C[C@](C)(O)CC[C@@H]5[C@H]4CC[C@]23C)c1 [Example 434]	100 to 1000
CCOC[C@@]1(O)CC[C@H]2[C@H](CC[C@@H]3[C@@H]2CC[C@]2(C)[C@@H]([C@@H](C)Nc4ccc(C#N)cc4C)CC[C@@H]32)C1 [Example 260]	< 100
CCOC[C@@]1(O)CC[C@H]2[C@H](CC[C@@H]3[C@@H]2CC[C@]2(C)[C@@H]([C@@H](C)N4Cc5cc(C#N)ccc5C4=O)CC[C@@H]32)C1 [Example 43, 2-((R)-1-((3R,5R,8R,9R,10S,13S,14S,17S)-3-(ethoxymethyl)-3-hydroxy-13-methylhexadecahydro-1H-cyclopenta[a]phenanthren-17-yl)ethyl)-1-oxoisoindoline-5-carbonitrile]	100 to 1000
COC[C@@]1(O)CC[C@H]2[C@H](CC[C@@H]3[C@@H]2CC[C@@]2(C)[C@H]3CC[C@]2(O)[C@@H](C)Cn2cc(C#N)cn2)C1 [Example 354]	1000 to 10000
COC[C@@]1(O)CC[C@H]2[C@H](CC[C@@H]3[C@@H]2CC[C@]2(C)[C@@H]([C@H](C)NC(=O)c4ccc(OC(F)(F)F)cn4)CC[C@@H]32)C1 [Example 129]	100 to 1000
C[C@@H](Nc1cccnc1)[C@H]1CC[C@H]2[C@@H]3CC[C@@H]4C[C@](C)(O)CC[C@@H]4[C@H]3CC[C@]12C [Example 203]	< 100
CCC[C@@]1(O)CC[C@H]2[C@H](CC[C@@H]3[C@@H]2CC[C@]2(C)[C@@H]([C@@H](C)Nc4ccc(-n5ccc(C)n5)nc4C)CC[C@@H]32)C1 [Example 91, (3R,5R,8R,9R,10S,13S,14S,17S)-13-methyl-17-((R)-1-((2-methyl-6-(3-methyl-1H-pyrazol-1-yl)pyridin-3-yl)amino)ethyl)-3-propylhexadecahydro-1H-cyclopenta[a]phenanthren-3-ol]	100 to 1000
CCOC[C@@]1(O)CC[C@H]2[C@H](CC[C@@H]3[C@@H]2CC[C@]2(C)[C@@H]([C@H](C)Cn4nnc(C)n4)CC[C@@H]32)C1 [Example 289, (3R,5R,8R,9R,10S,13S,14S,17R)-3-(ethoxymethyl)-13-methyl-17-((S)-1-(5-methyl-2H-tetrazol-2-yl)propan-2-yl)hexadecahydro-1H-cyclopenta[a]phenanthren-3-ol]	< 100
COC[C@@]1(O)CC[C@H]2[C@H](CC[C@@H]3[C@@H]2CC[C@]2(C)[C@@H]([C@@H](C)Nc4ccc(C#N)nc4)CC[C@@H]32)C1 [Example 258]	100 to 1000
CC[C@@]1(O)CC[C@H]2[C@H](CC[C@@H]3[C@@H]2CC[C@]2(C)[C@@H]([C@@H](C)Cn4nccc4C#N)CC[C@@H]32)C1 [Example 273, 1-((R)-2-((3R,5R,8R,9R,10S,13S,14S,17R)-3-ethyl-3-hydroxy-13-methylhexadecahydro-1H-cyclopenta[a]phenanthren-17-yl)propyl)-1H-pyrazole-5-carbonitrile]	< 100
C[C@H]([C@H]1CC[C@H]2[C@@H]3CC[C@@H]4C[C@](C)(O)CC[C@@H]4[C@H]3CC[C@]12C)n1nccn1 [Example 158, (3R,5R,8R,9R,10S,13S,14S,17S)-17-((R)-1-(2H-1,2,3-triazol-2-yl)ethyl)-3,13-dimethylhexadecahydro-1H-cyclopenta[a]phenanthren-3-ol]	100 to 1000
CCOC[C@@]1(O)CC[C@H]2[C@H](CC[C@@H]3[C@@H]2CC[C@]2(C)[C@@H]([C@H](CC)Cn4nccc4C#N)CC[C@@H]32)C1 [Example 501, 1-((S)-2-((3R,5R,8R,9R,10S,13S,14S,17R)-3-(ethoxymethyl)-3-hydroxy-13-methylhexadecahydro-1H-cyclopenta[a]phenanthren-17-yl)butyl)-1H-pyrazole-5-carbonitrile]	100 to 1000
CCOC[C@@]1(O)CC[C@H]2[C@H](CC[C@@H]3[C@@H]2CC[C@]2(C)[C@@H](CNC(=O)c4ccccc4)CC[C@@H]32)C1 [Example 15, N-(((3R,5R,8R,9R,10S,13S,14S,17S)-3-(ethoxymethyl)-3-hydroxy-13-methylhexadecahydro-1H-cyclopenta[a]phenanthren-17-yl)methyl)benzamide]	< 100
C[C@H]([C@H]1CC[C@H]2[C@@H]3CC[C@@H]4C[C@](C)(O)CC[C@@H]4[C@H]3CC[C@]12C)n1ccnn1 [Example 159, (3R,5R,8R,9R,10S,13S,14S,17S)-17-((R)-1-(1H-1,2,3-triazol-1-yl)ethyl)-3,13-dimethylhexadecahydro-1H-cyclopenta[a]phenanthren-3-ol]	≥ 10000
CCOC[C@@]1(O)CC[C@@]2(C)[C@H](CC[C@@H]3[C@@H]2CC[C@]2(C)[C@@H]([C@@H](C)N(C)S(=O)(=O)c4ccc(C#N)cn4)CC[C@@H]32)C1 [Example 78, 5-cyano-N—((R)-1-((3R,5R,8R,9S,10S,13S,14S,17S)-3-(ethoxymethyl)-3-hydroxy-10,13-dimethylhexadecahydro-1H-cyclopenta[a]phenanthren-17-yl)ethyl)-N-methylpyridine-2-sulfonamide]	< 100
CCOC[C@@]1(O)CC[C@@]2(C)[C@H](CC[C@@H]3[C@@H]2CC[C@]2(C)[C@@H]([C@@H](CC)Nc4ccc(C#N)nc4)CC[C@@H]32)C1 [Example 495, 5-(((R)-1-((3R,5R,8R,9S,10S,13S,14S,17S)-3-(ethoxymethyl)-3-hydroxy-10,13-dimethylhexadecahydro-1H-cyclopenta[a]phenanthren-17-yl)propyl)amino)picolinonitrile]	100 to 1000
COC[C@@]1(O)CC[C@H]2[C@H](CC[C@@H]3[C@@H]2CC[C@]2(C)[C@@H]([C@@H](C)Nc4cccc(C#N)c4)CC[C@@H]32)C1 [Example 254]	< 100
